In ChEMBL document CHEMBL1949597, “Novel vitamin D receptor ligands bearing a spherical hydrophobic core structure--comparison of bicyclic hydrocarbon derivatives with boron cluster derivatives” (Bioorg Med Chem Lett, 2012):
Calls of active or inactive are those of the source. The rule behind the calls is not given here.

Molecular target: T1, Vitamin D3 receptor (Homo sapiens) (UniProt P11473)
T1 sequence (whole entry): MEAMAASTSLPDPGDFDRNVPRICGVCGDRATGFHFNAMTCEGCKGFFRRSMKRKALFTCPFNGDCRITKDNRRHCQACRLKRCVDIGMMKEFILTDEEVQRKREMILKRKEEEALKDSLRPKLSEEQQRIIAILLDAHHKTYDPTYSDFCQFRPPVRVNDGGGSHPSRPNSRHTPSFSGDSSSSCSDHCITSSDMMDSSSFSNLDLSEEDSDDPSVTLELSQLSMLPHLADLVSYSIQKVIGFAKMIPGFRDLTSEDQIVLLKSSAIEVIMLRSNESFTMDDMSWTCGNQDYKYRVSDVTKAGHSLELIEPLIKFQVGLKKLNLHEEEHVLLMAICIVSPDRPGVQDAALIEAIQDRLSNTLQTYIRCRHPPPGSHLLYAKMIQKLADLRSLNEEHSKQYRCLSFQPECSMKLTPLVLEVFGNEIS
Assay: Induction of vitamin D receptor-mediated differentiation of human HL60 cells at 10^-6 M by NBT reduction method
Type: cell-based
Conditions: HL-60

## CCC(O)(CC)CCCCC12CCC(COCCC(O)CCO)(CC1)CC2 (stereo unspecified)
  Activity: Active
